According to patent publication US8802597B2, “Herbicidal pyrimidines” (E I du Pont de Nemours and Company, priority 2003, dated 2014):
Read-outs that look alike come from different tables or passages of the source.

Tests used:
Test in all cases: Test C pre/postemergence
Format in all cases: in vivo
[1] = system: Surinam grass (Brachiaria decumbens); conditions: Urochloa decumbens; for pest or weed control at 125 g/ha: 125 g ai/ha; for pest or weed control at 31 g/ha: 31 g ai/ha; for pest or weed control at 62 g/ha: 62 g ai/ha; for pest or weed control at 250 g/ha: 250 g ai/ha
How it was run: (§1)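 Applications: preemergence onto seeded soil and postemergence onto 1- to 4-leaf seedlings, compound carried in non-phytotoxic solvent plus surfactant. Kept in greenhouse 12 to 14 days. Scored visually relative to untreated controls, 0 (no effect) to 100 (complete control).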

[2] = system: bermudagrass (Cynodon dactylon); conditions: Cynodon dactylon; for pest or weed control at 31 g/ha: 31 g ai/ha; for pest or weed control at 62 g/ha: 62 g ai/ha; for pest or weed control at 125 g/ha: 125 g ai/ha; for pest or weed control at 125 g/ha / pest or weed control at 250 g/ha: scale 0 to 100; for pest or weed control at 250 g/ha: 250 g ai/ha
How it was run: as §1

[3] = system: common (oilseed) sunflower (Helianthus annuus); conditions: Helianthus annuus, pre-emergence, Preemergence, read-out: Plant response rating, Sunflower
How it was run: as §1

[4] = system: crabgrass (Digitaria sanguinalis); conditions: Digitaria sanguinalis; for pest or weed control at 31 g/ha: 31 g ai/ha; for pest or weed control at 62 g/ha: 62 g ai/ha; for pest or weed control at 125 g/ha: 125 g ai/ha; for pest or weed control at 250 g/ha: 250 g ai/ha
How it was run: as §1

[5] = system: giant foxtail (Setaria faberii); conditions: Setaria faberi; for pest or weed control at 125 g/ha: 125 g ai/ha; for pest or weed control at 31 g/ha: 31 g ai/ha; for pest or weed control at 62 g/ha: 62 g ai/ha; for pest or weed control at 250 g/ha: 250 g ai/ha
How it was run: as §1

[6] = system: goosegrass (Eleusine indica); conditions: Eleusine indica; for pest or weed control at 31 g/ha: 31 g ai/ha; for pest or weed control at 62 g/ha: 62 g ai/ha; for pest or weed control at 125 g/ha: 125 g ai/ha; for pest or weed control at 250 g/ha: 250 g ai/ha
How it was run: as §1

[7] = system: johnsongrass (Sorghum halepense); conditions: Sorghum halepense, post-emergence, Postemergence
How it was run: as §1

[8] = post-emergence, Postemergence, scale 0 to 100 (0 no effect, 100 complete control), read-out: Surinam Grass plant response rating
[9] = pre-emergence, Preemergence, scale 0 to 100, 0 no effect, 100 complete control, read-out: Plant response rating, Surinam Grass
[10] = pre-emergence, Preemergence, scale 0 to 100, read-out: Plant response rating, Surinam Grass
[11] = post-emergence, Postemergence, read-out: Plant response rating, Bermudagrass
[12] = pre-emergence, Preemergence, scale 0 to 100, 0 no effect, 100 complete control, read-out: Plant response rating, Bermudagrass
[13] = pre-emergence, Preemergence, read-out: Plant response rating, Bermudagrass
[14] = post-emergence, Postemergence, scale 0 to 100 (0 no effect, 100 complete control), read-out: Crabgrass plant response rating
[15] = pre-emergence, Preemergence, scale 0 to 100, 0 no effect, 100 complete control, read-out: Plant response rating, Crabgrass
[16] = pre-emergence, Preemergence, scale 0 to 100, read-out: Plant response rating, Crabgrass
[17] = post-emergence, Postemergence, scale 0 to 100 (0 no effect, 100 complete control), read-out: Foxtail, Giant plant response rating
[18] = pre-emergence, Preemergence, scale 0 to 100, 0 no effect, 100 complete control, read-out: Plant response rating, Foxtail, Giant
[19] = pre-emergence, Preemergence, scale 0 to 100, read-out: Plant response rating, Foxtail, Giant
[20] = post-emergence, Postemergence, scale 0 to 100 (0 no effect, 100 complete control), read-out: Goosegrass plant response rating
[21] = pre-emergence, Preemergence, scale 0 to 100, 0 no effect, 100 complete control, read-out: Plant response rating, Goosegrass
[22] = pre-emergence, Preemergence, scale 0 to 100, read-out: Plant response rating, Goosegrass

## COC(=O)c1nc(C(C)C)nc(N)c1Br [Compound 3]
[1]; [8]
  pest or weed control at 125 g/ha: 0%
  pest or weed control at 62 g/ha: 0%
[1]; post-emergence, Postemergence, read-out: Plant response rating (scale of 0 to 100), Surinam Grass
  pest or weed control at 31 g/ha: 0%
[1]; post-emergence, Postemergence, scale 0 to 100, read-out: Plant response rating, Surinam Grass
  pest or weed control at 250 g/ha: 0%
[1]; [9]
  pest or weed control at 31 g/ha: 0%
  pest or weed control at 62 g/ha: 0%
[1]; [10]
  pest or weed control at 125 g/ha: 0%
  pest or weed control at 250 g/ha: 0%
[2]; post-emergence, Postemergence, read-out: Plant response rating (scale of 0 to 100), Bermudagrass
  pest or weed control at 31 g/ha: 0%
[2]; post-emergence, Postemergence, scale 0 to 100 (0 no effect, 100 complete control), read-out: Bermudagrass plant response rating
  pest or weed control at 62 g/ha: 0%
[2]; [11]
  pest or weed control at 125 g/ha: 0%
  pest or weed control at 250 g/ha: 45%
[2]; [12]
  pest or weed control at 31 g/ha: 0%
  pest or weed control at 62 g/ha: 0%
[2]; [13]
  pest or weed control at 125 g/ha: 0%
  pest or weed control at 250 g/ha: 0%
[3]; 31 g ai/ha, scale 0 to 100, 0 no effect, 100 complete control
  pest or weed control at 31 g/ha: 0%
[3]; 62 g ai/ha, scale 0 to 100, 0 no effect, 100 complete control
  pest or weed control at 62 g/ha: 0%
[3]; 125 g ai/ha, scale 0 to 100
  pest or weed control at 125 g/ha: 0%
[3]; 250 g ai/ha, scale 0 to 100
  pest or weed control at 250 g/ha: 0%
[4]; post-emergence, Postemergence, read-out: Plant response rating (scale of 0 to 100), Crabgrass
  pest or weed control at 31 g/ha: 0%
[4]; [14]
  pest or weed control at 62 g/ha: 0%
  pest or weed control at 125 g/ha: 0%
[4]; post-emergence, Postemergence, scale 0 to 100, read-out: Plant response rating, Crabgrass
  pest or weed control at 250 g/ha: 0%
[4]; [15]
  pest or weed control at 31 g/ha: 0%
  pest or weed control at 62 g/ha: 0%
[4]; [16]
  pest or weed control at 125 g/ha: 0%
  pest or weed control at 250 g/ha: 0%
[5]; [17]
  pest or weed control at 125 g/ha: 0%
  pest or weed control at 62 g/ha: 0%
[5]; post-emergence, Postemergence, read-out: Plant response rating (scale of 0 to 100), Foxtail, Giant
  pest or weed control at 31 g/ha: 0%
[5]; post-emergence, Postemergence, scale 0 to 100, read-out: Plant response rating, Foxtail, Giant
  pest or weed control at 250 g/ha: 0%
[5]; [18]
  pest or weed control at 31 g/ha: 0%
  pest or weed control at 62 g/ha: 0%
[5]; [19]
  pest or weed control at 125 g/ha: 0%
  pest or weed control at 250 g/ha: 0%
[6]; post-emergence, Postemergence, read-out: Plant response rating (scale of 0 to 100), Goosegrass
  pest or weed control at 31 g/ha: 0%
[6]; [20]
  pest or weed control at 62 g/ha: 0%
  pest or weed control at 125 g/ha: 0%
[6]; post-emergence, Postemergence, scale 0 to 100, read-out: Plant response rating, Goosegrass
  pest or weed control at 250 g/ha: 0%
[6]; [21]
  pest or weed control at 31 g/ha: 0%
  pest or weed control at 62 g/ha: 0%
[6]; [22]
  pest or weed control at 125 g/ha: 0%
  pest or weed control at 250 g/ha: 0%
[7]; 31 g ai/ha, read-out: Plant response rating (scale of 0 to 100), Johnsongrass
  pest or weed control at 31 g/ha: 0%
[7]; 62 g ai/ha, scale 0 to 100 (0 no effect, 100 complete control), read-out: Johnsongrass plant response rating
  pest or weed control at 62 g/ha: 0%
